{
  "source": "paper PMC5030160",
  "about": "(Nature chemical biology, 2016)",
  "target": "Pdr5 (Saccharomyces cerevisiae, UniProt P33302)",
  "sequence (P33302 whole entry)": "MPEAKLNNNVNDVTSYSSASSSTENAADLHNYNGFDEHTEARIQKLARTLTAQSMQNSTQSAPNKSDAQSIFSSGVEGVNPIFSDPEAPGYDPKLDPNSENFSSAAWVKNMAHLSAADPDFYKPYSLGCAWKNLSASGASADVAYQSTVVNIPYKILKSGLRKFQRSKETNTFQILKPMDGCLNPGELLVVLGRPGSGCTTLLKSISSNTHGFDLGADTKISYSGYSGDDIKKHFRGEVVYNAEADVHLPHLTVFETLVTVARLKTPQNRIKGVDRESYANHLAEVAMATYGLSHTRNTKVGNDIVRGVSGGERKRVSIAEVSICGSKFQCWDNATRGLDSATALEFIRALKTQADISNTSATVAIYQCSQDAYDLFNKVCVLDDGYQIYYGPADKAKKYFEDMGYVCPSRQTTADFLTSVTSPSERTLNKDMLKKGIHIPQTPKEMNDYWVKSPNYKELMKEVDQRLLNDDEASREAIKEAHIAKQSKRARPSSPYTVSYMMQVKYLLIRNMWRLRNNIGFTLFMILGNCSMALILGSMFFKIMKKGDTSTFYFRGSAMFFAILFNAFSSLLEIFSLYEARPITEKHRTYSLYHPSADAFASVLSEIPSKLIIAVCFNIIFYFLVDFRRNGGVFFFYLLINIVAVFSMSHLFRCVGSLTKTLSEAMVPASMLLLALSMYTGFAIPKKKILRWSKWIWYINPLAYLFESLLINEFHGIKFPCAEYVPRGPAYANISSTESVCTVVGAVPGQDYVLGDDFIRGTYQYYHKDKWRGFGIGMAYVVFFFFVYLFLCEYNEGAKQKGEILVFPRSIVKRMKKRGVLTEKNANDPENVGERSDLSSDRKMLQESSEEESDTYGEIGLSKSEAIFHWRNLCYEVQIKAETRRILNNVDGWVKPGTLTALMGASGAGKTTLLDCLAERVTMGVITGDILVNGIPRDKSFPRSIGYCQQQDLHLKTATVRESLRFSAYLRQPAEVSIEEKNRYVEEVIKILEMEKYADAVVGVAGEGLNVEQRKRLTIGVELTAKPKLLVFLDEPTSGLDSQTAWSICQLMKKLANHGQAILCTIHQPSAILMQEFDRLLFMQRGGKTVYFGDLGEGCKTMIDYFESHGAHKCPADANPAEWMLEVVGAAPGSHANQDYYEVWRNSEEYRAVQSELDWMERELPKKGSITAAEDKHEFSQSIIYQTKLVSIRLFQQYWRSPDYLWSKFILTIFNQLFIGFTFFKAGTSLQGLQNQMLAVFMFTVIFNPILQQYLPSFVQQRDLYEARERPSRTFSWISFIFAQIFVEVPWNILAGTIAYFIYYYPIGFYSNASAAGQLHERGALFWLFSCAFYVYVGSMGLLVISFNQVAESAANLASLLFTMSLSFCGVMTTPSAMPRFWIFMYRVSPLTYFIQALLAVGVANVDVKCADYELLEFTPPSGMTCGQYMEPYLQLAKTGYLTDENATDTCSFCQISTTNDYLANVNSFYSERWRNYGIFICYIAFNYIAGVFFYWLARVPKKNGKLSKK",
  "assay": "fluorescence transport assay in isolated plasma membranes",
  "format": "biochemical",
  "settings": "150 nM R6G, 10 mM ATP, 5 mM MgCl2, Hepes pH 7.0, 30 °C",
  "data": [
    {"molecule": "CCN=c1cc2oc3cc(NCC)c(C)cc3c(-c3ccccc3C(=O)OCC)c-2cc1C", "note": "[rhodamine-6G]", "values": [
      {"measurement": "fluorescence transport assay in isolated plasma membranes", "value": "Active transport of rhodamine-6G (R6G) was determined according to a standard protocol"}
    ]}
  ]
}
